Values after ≈ are worked out from the molar mass of the structure shown.
Tests used:
[1] = Kinetic solubility of compound at pH 7; format: physicochemical; settings: buffer, read-out: Kinetic_solubility
[2] = Half life in mouse liver microsomes; format: ADME
[3] = Half life in dog liver microsomes; format: ADME, Canis lupus familiaris
[4] = Half life in human liver microsomes; format: ADME
[5] = Permeability from apical side to basolateral side in human Caco2 cells; format: ADME, cell-based; settings: Caco-2, read-out: permeability
[6] = Permeability from basolateral side to apical side in human Caco2 cells; format: ADME, cell-based; settings: Caco-2, read-out: permeability

Compound	solubility kinetic [1]	half-life [2]	half-life [3]	half-life [4]	Papp A→B [5]	Papp B→A [6]
CCS(=O)(=O)N1CCCCC(=O)N2CCc3cc(ccc32)Nc2ncc(C(F)(F)F)c(n2)NCc2ccccc21	< 1.6 µM	< 1 h	< 1 h	< 1 h	–	–
CS(=O)(=O)N1C/C=C/c2cccc(c2)Nc2ncc(C(F)(F)F)c(n2)NCc2cccnc21	0.3 µM (≈ 0.143 µg/mL)	–	–	–	–	–
CN1Cc2cccnc2N(S(C)(=O)=O)C/C=C/c2cc(ccc2N2CCOCC2)Nc2ncc(C(F)(F)F)c1n2	1 µM (≈ 0.576 µg/mL)	–	–	–	–	–
CN1Cc2ccncc2N(S(C)(=O)=O)C/C=C/c2cc(ccc2N2CCOCC2)Nc2ncc(C(F)(F)F)c1n2	3 µM (≈ 1.73 µg/mL)	–	–	4.38 h	–	–
CS(=O)(=O)N1CCCCC(=O)N2CCc3cc(ccc32)Nc2ncc(C(F)(F)F)c(n2)NCc2ccccc21	< 1.6 µM	< 1 h	< 1 h	< 1 h	–	–
CN1Cc2ccccc2N(S(C)(=O)=O)CCCCC(=O)N2CCc3cc(ccc32)Nc2ncc(C(F)(F)F)c1n2	< 1.6 µM	< 1 h	< 1 h	< 1 h	–	–
CN(c1ncccc1CNc1nc(Nc2ccc3c(c2)CC(=O)N3)ncc1C(F)(F)F)S(C)(=O)=O [PF-00562271]	–	–	–	–	11 ×10⁻⁶ cm/s	29 ×10⁻⁶ cm/s
CS(=O)(=O)N1CCCCC(=O)N2CCc3cc(ccc32)Nc2ncc(C(F)(F)F)c(n2)NCc2cccnc21	–	< 1 h	< 1 h	< 1 h	30 ×10⁻⁶ cm/s	32 ×10⁻⁶ cm/s
